This note sets out measurements from ChEMBL document CHEMBL1201862, “PubChem BioAssay data set” (2004).

The source made the active and inactive calls. Some results are limits rather than exact numbers.

The target of one assay is Kallikrein-7 (Homo sapiens, UniProt P49862). In words: Fluorescence Intensity-based biochemical primary high throughput dose response assay to identify activators of kallikrein-7 (K7) zymogen.
Assay [1] deals with T1, Sentrin-specific protease 7 (Homo sapiens, UniProt Q9BQF6).
T1 sequence (Q9BQF6 whole entry): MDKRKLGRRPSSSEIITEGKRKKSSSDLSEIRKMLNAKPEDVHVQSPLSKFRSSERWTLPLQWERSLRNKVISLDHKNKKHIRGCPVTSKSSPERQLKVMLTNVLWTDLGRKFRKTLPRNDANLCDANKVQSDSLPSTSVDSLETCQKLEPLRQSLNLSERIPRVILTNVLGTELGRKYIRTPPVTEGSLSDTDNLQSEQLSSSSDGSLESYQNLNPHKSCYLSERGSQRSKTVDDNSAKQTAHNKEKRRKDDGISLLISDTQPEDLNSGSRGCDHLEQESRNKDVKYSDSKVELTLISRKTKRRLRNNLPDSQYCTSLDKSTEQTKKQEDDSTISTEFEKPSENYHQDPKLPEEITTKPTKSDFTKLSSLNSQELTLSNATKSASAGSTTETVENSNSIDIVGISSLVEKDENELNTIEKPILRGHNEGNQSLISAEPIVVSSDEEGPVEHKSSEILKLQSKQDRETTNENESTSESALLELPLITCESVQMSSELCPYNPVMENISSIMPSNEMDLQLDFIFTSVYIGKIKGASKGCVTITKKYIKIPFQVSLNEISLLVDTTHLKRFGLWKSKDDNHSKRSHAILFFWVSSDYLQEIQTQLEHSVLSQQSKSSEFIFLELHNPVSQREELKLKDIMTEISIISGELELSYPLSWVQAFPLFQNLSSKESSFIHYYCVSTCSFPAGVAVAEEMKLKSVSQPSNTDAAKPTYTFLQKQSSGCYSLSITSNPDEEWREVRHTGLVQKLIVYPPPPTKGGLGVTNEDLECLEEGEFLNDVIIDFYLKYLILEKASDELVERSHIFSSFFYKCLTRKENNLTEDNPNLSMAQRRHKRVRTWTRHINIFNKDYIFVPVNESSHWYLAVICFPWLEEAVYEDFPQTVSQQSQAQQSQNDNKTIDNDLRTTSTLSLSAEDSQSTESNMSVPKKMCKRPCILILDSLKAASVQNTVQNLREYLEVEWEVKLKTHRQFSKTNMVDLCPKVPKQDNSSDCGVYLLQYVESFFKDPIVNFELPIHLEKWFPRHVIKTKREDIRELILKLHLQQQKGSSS
The assay is classed as functional.

In assay [2] the target is T2, Sentrin-specific protease 6 (Homo sapiens, UniProt Q9GZR1).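 Further: Luminescence-based dose-response confirmatory assay of SENP6 inhibition, following up an ultra-high-throughput screen.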
T2 sequence (Q9GZR1 whole entry): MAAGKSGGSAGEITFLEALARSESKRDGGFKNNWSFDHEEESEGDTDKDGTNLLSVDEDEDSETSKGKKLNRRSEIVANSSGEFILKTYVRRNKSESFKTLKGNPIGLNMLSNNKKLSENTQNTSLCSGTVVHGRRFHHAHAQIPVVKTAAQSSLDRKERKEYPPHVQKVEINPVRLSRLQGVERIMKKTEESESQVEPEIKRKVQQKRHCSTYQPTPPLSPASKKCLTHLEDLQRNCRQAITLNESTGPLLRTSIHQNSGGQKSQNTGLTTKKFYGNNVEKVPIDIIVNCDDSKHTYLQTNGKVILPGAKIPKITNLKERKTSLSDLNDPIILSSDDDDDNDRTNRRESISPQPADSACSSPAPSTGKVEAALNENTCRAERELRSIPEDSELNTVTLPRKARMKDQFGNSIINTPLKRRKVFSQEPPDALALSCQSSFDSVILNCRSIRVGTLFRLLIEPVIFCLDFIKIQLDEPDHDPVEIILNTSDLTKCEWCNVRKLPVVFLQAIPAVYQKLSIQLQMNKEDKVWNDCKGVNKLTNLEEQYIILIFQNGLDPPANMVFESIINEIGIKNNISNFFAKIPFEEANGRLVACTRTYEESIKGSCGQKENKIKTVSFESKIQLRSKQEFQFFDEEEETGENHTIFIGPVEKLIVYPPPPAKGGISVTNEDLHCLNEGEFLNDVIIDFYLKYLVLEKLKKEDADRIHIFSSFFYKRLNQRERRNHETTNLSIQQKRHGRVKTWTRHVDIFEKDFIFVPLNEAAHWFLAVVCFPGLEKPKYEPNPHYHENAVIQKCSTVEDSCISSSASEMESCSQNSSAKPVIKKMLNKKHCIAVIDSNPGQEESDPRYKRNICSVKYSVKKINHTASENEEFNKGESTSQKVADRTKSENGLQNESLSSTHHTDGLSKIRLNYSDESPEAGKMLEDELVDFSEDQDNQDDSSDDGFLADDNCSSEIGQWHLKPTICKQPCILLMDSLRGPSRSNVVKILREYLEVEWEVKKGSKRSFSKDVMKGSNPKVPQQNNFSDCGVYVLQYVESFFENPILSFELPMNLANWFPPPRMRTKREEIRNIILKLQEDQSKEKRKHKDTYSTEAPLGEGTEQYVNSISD
The assay is classed as functional.

Assay [3] is described as follows: Artemis endonuclease inhibitor potency, dose response, biochemical, fluorescence intensity (AID 720701).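 Further: Artemis endonuclease enzyme.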 The format is functional.
In assay [4] the target is T3, Sentrin-specific protease 8 (Homo sapiens, UniProt Q96LD8).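 Further: luminescence read-out of SENP8 inhibition, dose-response confirmation following an ultra-high-throughput screen.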
T3 sequence (Q96LD8 whole entry): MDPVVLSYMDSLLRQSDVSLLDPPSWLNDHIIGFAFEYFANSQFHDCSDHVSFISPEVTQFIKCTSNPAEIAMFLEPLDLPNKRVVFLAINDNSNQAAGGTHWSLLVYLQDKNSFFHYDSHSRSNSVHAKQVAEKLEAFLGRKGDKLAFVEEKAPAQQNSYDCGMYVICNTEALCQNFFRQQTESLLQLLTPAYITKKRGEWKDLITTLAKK
The format is functional.

For a further assay, the target named is T4, Caspase-3 (Homo sapiens, UniProt P42574).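 Further: Dose-response selectivity test against caspase-3 for candidate inhibitors of sentrin-specific proteases (SENPs).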
T4 sequence (P42574 whole entry): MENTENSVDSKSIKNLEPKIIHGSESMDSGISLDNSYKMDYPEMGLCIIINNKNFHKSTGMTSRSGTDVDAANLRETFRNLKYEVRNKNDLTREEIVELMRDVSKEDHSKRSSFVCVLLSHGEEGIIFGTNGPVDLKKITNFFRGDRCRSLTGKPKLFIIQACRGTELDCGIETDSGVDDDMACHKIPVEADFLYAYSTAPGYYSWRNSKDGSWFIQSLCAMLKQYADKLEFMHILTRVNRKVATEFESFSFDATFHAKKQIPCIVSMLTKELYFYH
The assay is classed as functional.

Assay [5] can be described thus: IGROV1 ovarian cancer cell cytotoxicity, dose response, PAX8 inhibitor project, plate reader, dry powder samples (AID 743043). The assay is classed as functional, cell-based. The settings on record: IGROV-1.
A short description of assay [6]: A549 cell cytotoxicity, dose response, cytotoxicity control, plate reader, cherry-pick, antagonist series (AID 743412). The assay is classed as functional, cell-based.
Assay [7] can be described thus: cytotoxicity in OV-90 ovarian cancer cells, dose response, PAX8 inhibitor project, cell-based, plate reader, dry powder, SA8 (AID 743149). The assay is classed as functional.
A short description of assay [8]: cytotoxicity in COV362 ovarian cancer cells, dose response, cytotoxicity control for PAX8 inhibitor project, cell-based, plate reader, dry powder, SA12 (AID 743144). The format is functional.
Assay [9] can be described thus: HEK293 cell cytotoxicity, dose response, cytotoxicity control, plate reader, cherry-picked samples (AID 743446). The format is functional, cell-based.
Assay [10] is described as follows: PAX5 activity inhibitors, dose response, selectivity assay for PAX8 inhibitor project, cell-based, plate reader, dry powder samples (AID 743047).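 Further: HEK293 cells carrying a Pax5 driven CD19 promoter luciferase reporter; potency of inhibitors that lower reporter luminescence.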 The assay is classed as functional.
Assay [11] can be described thus: IOSE-T80 ovarian epithelial cell cytotoxicity, dose response, cytotoxicity control for PAX8 inhibitor project, plate reader, dry powder samples (AID 743045). The format is functional, cell-based.
Assay [12] in a line: cytotoxicity dependent on PAX8, dose response, cell-based, plate reader, dry powder (AID 743049). The format is functional.
Assay [13] is described as follows: NIH:OVCAR-3 ovarian cancer cell cytotoxicity, dose response, PAX8 inhibitor project, plate reader, dry powder samples (AID 743044). The assay is classed as functional, cell-based.
A short description of assay [14]: cytotoxicity in COV434 cells, dose response, cytotoxicity control for PAX8 inhibitor project, cell-based, plate reader, dry powder, SA7 (AID 743145). The assay is classed as functional.
The nature of assay [15]: LGR2 antagonists, dose response, cell-based, HEK293, CRE-luciferase reporter, cherry pick, set 2 (AID 743343).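 Further: transfected cells were stimulated with diluted bursicon conditioned medium after compound addition.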 The format is functional. A general note: Reporter assays use an easily measured gene product as a stand-in for the process of interest.
Assay [16] in a line: PAX2 cell-based inhibition, dose response, selectivity assay for PAX8 inhibitor project, plate reader, dry powder samples (AID 743048).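 Further: HEK293 cells carrying a WT1 promoter luciferase reporter driven by expressed Pax2; potency is for inhibition of Pax2 driven reporter signal.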 The format is functional.
Assay [17] is described as follows: MC4R antagonists, dose response, counter-screen for LGR2 antagonist project, cell-based, plate reader, cherry pick (AID 743444).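 Further: transfected HEK 293 cells stimulated with alpha-MSH peptide; potency of inhibitors of the alpha-MSH evoked signal.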 The format is functional. In general terms: A counterscreen serves to expose hits that act by an unwanted route or on another target.
The nature of assay [18]: HepG2 cell cytotoxicity, dose response, cytotoxicity control, plate reader, cherry-pick, antagonist series (AID 743416). The format is functional, cell-based.
Assay [19] can be described thus: inhibitors of CMV-promoter luciferase reporter, dose response, counter-screen for Pax8 inhibitor project, cell-based, HEK293, luminescence, dry powder (AID 743020). The assay is classed as functional.
Another assay has as its target Paired box protein Pax-8 (Homo sapiens, UniProt Q06710). In words: inhibitors of PAX8-driven TPO luciferase reporter, dose response, RMG-I cells, cherry-pick (AID 687027).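 Further: luciferase reporter driven by Pax8 target thyroperoxidase promoter measured by SteadyGlo luminescence.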 The format is functional, cell-based.
Assay [20] is described as follows: cytotoxicity in OVCAR8 ovarian cancer cells, dose response, PAX8 project, cell-based, plate reader, dry powder samples (AID 743197). The format is functional. To be noted: OVCAR-8.
A short description of assay [21]: A2780 ovarian cancer cell cytotoxicity, dose response, cytotoxicity control, plate reader, dry powder samples (AID 743046). The format is functional, cell-based.

Paired box protein Pax-8, sequence (Q06710 whole entry): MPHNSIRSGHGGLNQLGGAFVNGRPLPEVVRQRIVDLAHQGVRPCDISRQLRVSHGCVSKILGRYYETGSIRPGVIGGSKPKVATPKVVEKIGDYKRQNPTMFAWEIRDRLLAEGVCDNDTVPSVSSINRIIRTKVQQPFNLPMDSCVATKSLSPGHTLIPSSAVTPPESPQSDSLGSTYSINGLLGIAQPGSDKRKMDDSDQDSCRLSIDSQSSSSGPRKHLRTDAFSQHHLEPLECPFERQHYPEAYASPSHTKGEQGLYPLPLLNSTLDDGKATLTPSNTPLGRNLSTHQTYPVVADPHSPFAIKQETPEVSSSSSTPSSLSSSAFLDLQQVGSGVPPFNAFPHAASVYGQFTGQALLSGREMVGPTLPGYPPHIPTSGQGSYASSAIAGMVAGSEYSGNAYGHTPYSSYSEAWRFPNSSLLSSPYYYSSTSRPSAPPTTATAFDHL
Kallikrein-7, sequence (P49862 whole entry): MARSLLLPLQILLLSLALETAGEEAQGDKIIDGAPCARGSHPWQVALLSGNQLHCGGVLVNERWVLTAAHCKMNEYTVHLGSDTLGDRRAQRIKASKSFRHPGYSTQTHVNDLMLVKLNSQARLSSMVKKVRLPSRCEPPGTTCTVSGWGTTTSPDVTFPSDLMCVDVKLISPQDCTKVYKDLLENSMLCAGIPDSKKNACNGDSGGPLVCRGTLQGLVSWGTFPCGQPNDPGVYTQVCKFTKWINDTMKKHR

Consider `COc1ccc(-c2ccc3nnc(SCC(=O)NCC4CCCO4)n3n2)cc1` (configuration not stated), for which the EC50 (commonly the midpoint of the concentration-response curve) on Kallikrein-7 is > 69.5 µM (inactive).

Take `Brc1ccc(-c2cn3nc4c(nc3n2)CCCC4)cc1`: the IC50 (usually the midpoint of a concentration-inhibition curve) in assay [1] was 21.2 µM (active); in assay [2], 12.3 µM (active); in [3], > 20 µM (inactive); in [4], 17.7 µM (active); on Caspase-3, 17.4 µM (active).

With `N#C[C@@H]1[C@H](c2ccc(C#Cc3ccc(F)cc3)cc2)[C@@H](CO)N1C(=O)Nc1ccc(F)cc1`, the half-maximal activity concentration (AC50) – broadly, the concentration at which the activity in the assay is half-maximal – was 23.1 µM (active) in assay [5]; 14.3 µM (active) in [6]; > 70 µM (inactive) in [7]; 44.7 µM (active) in assay [8]; 27.9 µM (active) in assay [9]; 15.8 µM (active) in [10]. Further, the AC50 in assay [11] is 24 µM (active); in assay [12], 33.8 µM (active); in [13] it was 30.9 µM (active); in assay [14], > 70 µM (inactive); in [15], 34.4 µM (active); in assay [16] it was 12.9 µM (active). Further, the AC50 in assay [17] is 35.9 µM (active); in assay [18], 16.8 µM (active); in assay [19], 5.19 µM (active); on Paired box protein Pax-8, 4.38 µM (active); in [20] it was 22.2 µM (active).

Turning to `C[C@@H]1CCCCO[C@H](CN(C)C(=O)c2ccccc2)[C@H](C)CN([C@@H](C)CO)C(=O)c2cc(NC(=O)Nc3ccc(C(F)(F)F)cc3)ccc2O1`, the AC50 in assay [13] is 19.9 µM (active); in [21], 64.1 µM (active); on Paired box protein Pax-8, 6.57 µM (active); in assay [20], 34.4 µM (active).
